The subject of this assay is BDF1 mice, L1210 leukemia sc, survival T/C. Description: NCI In Vivo Anticancer Drug Screen. Data for tumor model L1210 Leukemia (subcutaneous) in B6D2F1 (BDF1) mice. The note with it: endpoint: median survival time, higher = longer survival. An outline of the steps: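 Mice carrying transplanted tumors received test compounds, and survival or tumor size was measured. Values are the treated-group measurement (T) divided by that of the vehicle-treated control group (C).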

[1] abbreviates: dose: 14.0 mg/kg/injection, schedule: Q01DX Z (sc), vehicle: carboxymethylcellulose (CMC).
[2] abbreviates: dose: 23.0 mg/kg/injection, schedule: Q01DX Z (sc), vehicle: carboxymethylcellulose (CMC).

Structures are written as SMILES. Several values for one entry are separate records, joined by “and”; a condition that tells them apart may be missing. Equal values may be shown once. Inconclusive results and toxic doses are left out. Square brackets hold non-standard residues; d marks the D form. Peptide text beside a SMILES is read from it. Ac5c = NC1(C(=O)O)CCCC1

The results in this text go back to PubChem BioAssay AID250 (DTP/NCI, 2004).

Turning to `COc1cc([C@@H]2c3cc4c(cc3[C@H](OC(=O)CCCC(=O)O)[C@H]3COC(=O)[C@H]23)OCO4)cc(OC)c1OC`, the T/C was 100 % of control (dose: 5.0 mg/kg/injection, schedule: Q01DX Z (sc), vehicle: water); 109 % of control (dose: 8.4 mg/kg/injection, schedule: Q01DX Z (sc), vehicle: water); 113 % of control (dose: 14.0 mg/kg/injection, schedule: Q01DX Z (sc), vehicle: water); 113 % of control (dose: 23.0 mg/kg/injection, schedule: Q01DX Z (sc), vehicle: water); 118 % of control (dose: 39.0 mg/kg/injection, schedule: Q01DX Z (sc), vehicle: water); 118 % of control (dose: 65.0 mg/kg/injection, schedule: Q01DX Z (sc), vehicle: water). For the same compound, the T/C (dose: 108.0 mg/kg/injection, schedule: Q01DX Z (sc), vehicle: water) was 118 % of control.

Consider `CCCOC1=C(N2CC2)C(=O)C(OCCC)=C(N2CC2)C1=O`, for which the T/C (dose: 8.4 mg/kg/injection, schedule: Q01DX Z (sc), vehicle: saline) was 110 % of control; the T/C (dose: 14.0 mg/kg/injection, schedule: Q01DX Z (sc), vehicle: saline) was 110 % of control; the T/C (dose: 108.0 mg/kg/injection, schedule: Q01DX Z (sc), vehicle: saline) is 115 % of control.

`O=NN(CCCl)C(=O)NC1CCCCC1`: the T/C (dose: 2.5 mg/kg/injection, schedule: Q01DX009 (sc), vehicle: other) is 123 % of control; the T/C (dose: 3.0 mg/kg/injection, schedule: Q01DX Z (sc), vehicle: carboxymethylcellulose (CMC)) is 110 % of control; the T/C (dose: 5.0 mg/kg/injection, schedule: Q01DX009 (sc), vehicle: other) was 158 % of control; the T/C (dose: 5.0 mg/kg/injection, schedule: Q01DX Z (oral), vehicle: carboxymethylcellulose (CMC)) is 221 % of control; the T/C (dose: 5.0 mg/kg/injection, schedule: Q01DX Z (sc), vehicle: carboxymethylcellulose (CMC)) is 120 % of control; the T/C (dose: 8.0 mg/kg/injection, schedule: Q01DX009 (ip), vehicle: other) was 152 % of control. Moreover, the T/C (dose: 8.4 mg/kg/injection, schedule: Q01DX Z (oral), vehicle: carboxymethylcellulose (CMC)) was 447 % of control; the T/C (dose: 8.4 mg/kg/injection, schedule: Q01DX Z (sc), vehicle: carboxymethylcellulose (CMC)) was 315 % of control and 421 % of control; the T/C (dose: 8.4 mg/kg/injection, schedule: Q07DX Z (sc), vehicle: carboxymethylcellulose (CMC)) was 100 % of control; the T/C (dose: 10.0 mg/kg/injection, schedule: Q01DX009 (sc), vehicle: other) was 160 % of control; the T/C (dose: 14.0 mg/kg/injection, schedule: Q01DX001 (sc), vehicle: carboxymethylcellulose (CMC)) is 120 % of control; the T/C (dose: 14.0 mg/kg/injection, schedule: Q01DX Z (oral), vehicle: carboxymethylcellulose (CMC)) is 410 % of control. Also, the T/C was 400 % of control and 560 % of control under setting [1]; 165 % of control (dose: 14.0 mg/kg/injection, schedule: Q07DX Z (sc), vehicle: carboxymethylcellulose (CMC)); 163 % of control (dose: 20.0 mg/kg/injection, schedule: Q01DX009 (sc), vehicle: other); 150 % of control (dose: 23.0 mg/kg/injection, schedule: Q01DX001 (sc), vehicle: carboxymethylcellulose (CMC)); 215 % of control (dose: 23.0 mg/kg/injection, schedule: Q01DX Z (oral), vehicle: carboxymethylcellulose (CMC)); 265 % of control and 273 % of control under setting [2]. For the same compound, the T/C (dose: 23.0 mg/kg/injection, schedule: Q07DX Z (sc), vehicle: carboxymethylcellulose (CMC)) is 170 % of control; the T/C (dose: 32.0 mg/kg/injection, schedule: Q01DX009 (ip), vehicle: other) is 120 % of control; the T/C (dose: 39.0 mg/kg/injection, schedule: Q01DX001 (sc), vehicle: carboxymethylcellulose (CMC)) is 295 % of control; the T/C (dose: 39.0 mg/kg/injection, schedule: Q01DX Z (oral), vehicle: carboxymethylcellulose (CMC)) is 157 % of control; the T/C (dose: 39.0 mg/kg/injection, schedule: Q07DX Z (sc), vehicle: carboxymethylcellulose (CMC)) was 750 % of control; the T/C (dose: 65.0 mg/kg/injection, schedule: Q01DX001 (sc), vehicle: carboxymethylcellulose (CMC)) is 355 % of control. Also, the T/C is, setting by setting: (dose: 65.0 mg/kg/injection, schedule: Q07DX Z (sc), vehicle: carboxymethylcellulose (CMC)) 330 % of control; (dose: 108.0 mg/kg/injection, schedule: Q01DX001 (sc), vehicle: carboxymethylcellulose (CMC)) 750 % of control.

As to `NCC(=O)NC1(C(=O)O)CCCC1` (H-Gly-[Ac5c]-OH), the T/C (dose: 55.0 mg/kg/injection, schedule: Q01DX Z (sc), vehicle: water) is 105 % of control; the T/C (dose: 91.0 mg/kg/injection, schedule: Q01DX Z (sc), vehicle: water) is 105 % of control; the T/C (dose: 152.0 mg/kg/injection, schedule: Q01DX Z (sc), vehicle: water) was 105 % of control; the T/C (dose: 253.0 mg/kg/injection, schedule: Q01DX Z (sc), vehicle: water) was 157 % of control.

Turning to `C[n+]1c2ccccc2c(Nc2ccc(NS(=O)(=O)CCCCN=C(N)N)cc2)c2ccc(N)cc21`, the T/C is, setting by setting: (dose: 1.5 mg/kg/injection, schedule: Q01DX009 (ip), vehicle: water) 110 % of control; (dose: 3.0 mg/kg/injection, schedule: Q01DX009 (ip), vehicle: water) 120 % of control; (dose: 6.0 mg/kg/injection, schedule: Q01DX009 (ip), vehicle: water) 151 % of control; (dose: 12.0 mg/kg/injection, schedule: Q01DX009 (ip), vehicle: water) 173 % of control.

Consider `Cn1c(O)c(N=NC(N)=S)c2ccccc21`, for which the T/C (dose: 5.0 mg/kg/injection, schedule: Q01DX Z (sc), vehicle: methylcellulose (MC)) is 100 % of control; the T/C (dose: 8.4 mg/kg/injection, schedule: Q01DX Z (sc), vehicle: methylcellulose (MC)) is 100 % of control; the T/C (dose: 14.0 mg/kg/injection, schedule: Q01DX Z (sc), vehicle: methylcellulose (MC)) is 100 % of control; the T/C (dose: 23.0 mg/kg/injection, schedule: Q01DX Z (sc), vehicle: methylcellulose (MC)) is 100 % of control; the T/C (dose: 39.0 mg/kg/injection, schedule: Q01DX Z (sc), vehicle: methylcellulose (MC)) was 100 % of control; the T/C (dose: 65.0 mg/kg/injection, schedule: Q01DX Z (sc), vehicle: methylcellulose (MC)) was 100 % of control. For the same compound, the T/C is 100 % of control (dose: 108.0 mg/kg/injection, schedule: Q01DX Z (sc), vehicle: methylcellulose (MC)) and 100 % of control (dose: 180.0 mg/kg/injection, schedule: Q01DX Z (sc), vehicle: methylcellulose (MC)).

For the compound `O=NN(CCF)C(=O)NC12CC3CC(CC(C3)C1)C2`, the T/C runs as follows: under setting [1], 100 % of control; under setting [2], 100 % of control; (dose: 65.0 mg/kg/injection, schedule: Q01DX Z (sc), vehicle: carboxymethylcellulose (CMC)) 388 % of control; (dose: 108.0 mg/kg/injection, schedule: Q01DX Z (sc), vehicle: carboxymethylcellulose (CMC)) 200 % of control.
